Test results reported in patent US20050222209A1, “Methods and compositions for the treatment, prevention or management of dysfunctional sleep and dysfunctional sleep associated with disease” (priority 2004, published 2005).

Legend:
[1] = cited from earlier work; for hygroscopicity: crystalline polymorphic form; for interconversion of polymorphic form: solvent system or relative humidity as stated; for interconversion on heating (desolvation experiments): Form E: about 125° C. for about five minutes, Form B: 175° C. for about five minutes
subjects = assay: Pittsburgh Sleep Quality Index study (PSQI, daily sleep diary); assay type: in vivo, human; settings: 10 mg/day orally, 12 week study, twelve subjects
Experimental: Twelve subjects were treated with 10 mg/day of 3-(4-amino-1-oxo-1,3-dihydro-isoindol-2-yl)-piperidine-2,6-dione orally for 12 weeks. Subjects were seen every 2 weeks until study completion. Subjects were asked to keep a daily sleep diary asking how much interference with sleep (0-10 scale) was experienced. Patients were also asked to complete the Pittsburgh Sleep Quality Inventory (PSQI) at the start of the treatment and ever 4 weeks thereafter, Buysse, DJ et al., Journal of Psychiatric Research, 28 (2), 193-213, 1989.

SMILES | hygroscopicity [1] | interconversion of polymorphic form [1] | interconversion on heating (desolvation experiments) [1] | other results
Nc1cccc2c1CN(C1CCC(=O)NC1=O)C2=O (stereo not shown) [Form D, 3-(4-amino-1-oxo-1,3 dihydro-isoindol-2-yl)-piperidene-2,6-dione] | either weakly or not hygroscopic | will typically convert to Form B when stressed at higher relative humidities | – | –
Nc1cccc2c1CN(C1CCC(=O)NC1=O)C2=O (stereo not shown) [Form E, 3-(4-amino-1-oxo-1,3 dihydro-isoindol-2-yl)-piperidene-2,6-dione] | – | can convert to Form C in an acetone solvent system and to Form G in a THF solvent system | can convert to Form B | –
Nc1cccc2c1CN(C1CCC(=O)NC1=O)C2=O (stereo not shown) [Form C, 3-(4-amino-1-oxo-1,3 dihydro-isoindol-2-yl)-piperidene-2,6-dione] | not hygroscopic below about 85% RH | can convert to Form B at higher relative humidities | – | –
Nc1cccc2c1CN(C1CCC(=O)NC1=O)C2=O (stereo not shown) [3-(4-amino-1-oxo-1,3-dihydro-isoindol-2-yl)-piperidine-2,6-dione] | – | – | – | need for sleep medications (subjects): significantly improved; overall sleep quality (subjects): significantly improved; presence of daytime sleepiness (subjects): significantly improved
Nc1cccc2c1CN(C1CCC(=O)NC1=O)C2=O (stereo not shown) [Form B, 3-(4-amino-1-oxo-1,3 dihydro-isoindol-2-yl)-piperidene-2,6-dione] | – | converts to Form E in aqueous solvent systems | can convert to Form F | –
Nc1cccc2c1CN(C1CCC(=O)NC1=O)C2=O (stereo not shown) [Form A, 3-(4-amino-1-oxo-1,3 dihydro-isoindol-2-yl)-piperidene-2,6-dione] | weakly or not hygroscopic | – | – | relative stability of polymorph ([1]; Form A: among anhydrous polymorphs, Form E: in aqueous solvent systems): most thermodynamically stable anhydrous polymorph
